Several values for one entry are separate records, joined by “and”; a condition that tells them apart may be missing. Equal values may be shown once. Bridge positions count the residues as written; N and C are the ends. Square brackets hold non-standard residues; d marks the D form. Peptide text beside a SMILES is read from it. 2Nal = N[C@@H](Cc1ccc2ccccc2c1)C(=O)O; R5 = C=CCCC[C@@](C)(N)C(=O)O; S5 = C=CCCC[C@](C)(N)C(=O)O; βAla = NCCC(=O)O
Columns and labels:
[1] = tested on: Colo320DM cells; test: cells; conditions: Colo320DM cells
Procedure: Colo320DM cells were selected for this assay as the proliferation of this particular cell line is dependent on BCL9 and β-catenin. ICG001, a known Wnt/β-catenin small molecule inhibitor, was used as a positive control. The cell viability at each treatment condition was analyzed using CellTiterGlo luminescent cell viability assay (Promega) according to the manufacturer's protocols.
Following the procedure described in Example 2, the ability of WX-035 to inhibit cell growth was tested in a cell viability assay using Colo320DM cells.

[2] = Pharmacokinetics in female balb/c mice; assay type: in vivo; conditions: mouse, plasma, 30 mg/kg intravenous or intraperitoneal
Procedure: The peptide solution was prepared at the fixed concentration of 0.5 mg/ml, and then suitable amounts were administered according to the dose. The same mixed solvent was used as a vehicle treatment. Blood samples (300 IA) were collected periodically from the retro-orbital vein at 0.25, 1, 2, 4, 6, 7, 12, and 24-hours post-dose (and 36 and 48 hours post-dose for intramuscular, subcutaneous, and intraperitoneal routes), followed by plasma separation for pending bioanalysis by LC-MS/MS. Standard PK parameters were calculated by non-compartmental analysis modules in WinNonlin Professional (v5.2, Pharsight, FDA-certified).
Two different administration routes, intravenous or intraperitoneal, were compared using 30 mg/kg WX-035. […] As observed with male ICR mice, the half-life of WX-035 in this experiment was more than 9 hours.

[3] = tested on: CT26 cells; test: CT26 syngeneic mouse model of colon cancer (Balb/c); assay type: in vivo, mice
Procedure: The syngeneic mouse model of colon cancer using CT26 was then assessed. Male Balb/c mice were injected subcutaneously in the right flank with 5×10^4 CT26 cells each at approximately 5 weeks of age. […] Eight mice were included in each treatment group.
The whole blood was taken from each mouse. Lymphocytes were purified from the blood samples by Ficoll, and the cells were stained with fluorescent anti-CD4 antibody. Data were measured by flow cytometry.
As described above, the whole blood was taken from each mouse. Lymphocytes were purified from blood by Ficoll, and the cells were stained with fluorescent anti-CD8 antibody. Data were measured by flow cytometry.
To further assess whether WX-024 is capable of modulating a tumor microenvironment, tumor and blood samples were collected in anticoagulation tubes at the end of the study. Single cells separation was performed and then cells were stained for FACS analysis. For cell surface staining, CD45-PerCP-Cy5, CD4-FITC, CD8-PE-Cy7, and CD25-PE were used. For intranuclear staining, cells were permeabilized overnight and then stained with Foxp3-APC for 60 minutes.
The in vivo efficacy of WX-035 in treating a cancer was assessed in a syngeneic mouse model, following the procedures described in Example 5.3. Trametinib, a known MEK inhibitor, was used as a comparison. Briefly, balb/c mice were inoculated with CT26 and treatment started when tumor volume reached to about 100 mm^3. The mice were then divided into three groups and began administered with a vehicle, 40 mg/kg WX-035, or 1 mg/kg trametinib for 7 consecutive days.
At the end of the study described in Example 9.2, a tumor sample from each mouse was collected to assess the effect of WX-035 in modulating T cell activation. The FACS analysis of each tumor sample was performed following the procedure described in Example 5. A shown in FIG. 36A, treatment with WX-035 reduced the total amount of CD45^+ cells. […] Likewise, Foxp3^+ CD25^+ T cells were reduced by WX-035 treatment (FIG. 36C). […] Furthermore, by increasing the ratio of cytotoxic T cells over regulatory T cells, WX-035 may induce a microenvironment that favors an immune reaction beneficial for tumor treatment. Of note, the samples collected from this experiment were also assessed for LGR5 expression.

[4] = Toxicity study of WX-035 in balb/c nude mice (H&E of major organs); assay type: in vivo; conditions: 30 mg/kg or 40 mg/kg i.v., 7 consecutive days
Procedure: To assess the toxicity effect of WX-035, balb/c nude mice were administered with a vehicle, or 30 mg/kg, or 40 mg/kg WX-035, following the procedure described in Example 5.6. At the end of the study, the mice were sacrificed and major organs were harvested for H&E staining.

[5] = tested on: CT26.WT cells; assay type: cell-based
Procedure: One of the stabilized polypeptides generated in Example 10 was tested in a cell viability assay and compared against WX-035. WX-037 was selected for this comparison study. The cell viability assay was performed with CT26.WT cells (ATCC), following the procedures described in Example 2. Briefly, 4000 cells per well of each plate were seeded with 50 μL opti-MEM medium. Each polypeptide, WX-035 or WX-037, was diluted with 2% FBS containing opti-MEM medium using 1 μL of 200× concentrated polypeptide in 99 μL of the medium. Each stock solution was diluted for testing a wide range of concentrations. 50 μL of 2× concentrated polypeptide was added to each well of the plate. Three days after the polypeptide addition, the viability of cells was measured using CellTiterGlo assay, according to the manufacturer's protocol.

[6] = FIG. 33B
Procedure: Table printed on a drawing sheet, FIG. 33B
The patent's description of the figure: FIG. 33A and FIG. 33B show PK data for WX-035 administered to male ICR mice (an outbred strain). The mice were treated with either 1 mg/kg, or 5 mg/kg WX-035 intravenously or 5 mg/kg WX-035 intraperitoneally.
First reader's note: Plasma PK parameters by route and dose; according to the description the animals are male ICR mice.

[7] = FIG. 34B
Procedure: Table printed on a drawing sheet, FIG. 34B
The patent's description of the figure: FIG. 34A and FIG. 34B show PK data for WX-035 administered to female balb/c mice (n=3). The mice were either intravenously or intraperitoneally administered with 30 mg/kg WX-035. Blood samples from each mouse were collected at 5 min, 15 min, 30 min, 1, 2, 4, 6, 8, 12, 24, 36, 48, and 72 hours post administration.
First reader's note: Substance, dose (30 mg/kg IV and IP) and species (female Balb/c nude mice, N=3) are printed in the title of FIG. 34A on the same sheet; the label F is printed once, between the mIL/min/kg row and the % row, so the mIL/min/kg row may in fact belong to CL.

[8] = Pharmacokinetics in male ICR mice; conditions: mouse, plasma, 5 mg/kg
Procedure: The tail vein was used for i.v. injections. […] Following injections, blood samples were obtained via the retro-orbital vein at 5 min, 1, 2, 4, 6, 8, 12, and 24 hours postdose. Plasma was obtained from the blood samples following mixing with sodium heparin and centrifugation.
LC analysis was done using an Agilent 100 HPLC. MS analysis was done using an AB Sciex API 4000. Calibration standards were prepared by serial dilution.
The maximum observed concentration (Cmax), terminal half-life (T1/2), total body clearance (CL), volume of distribution (Vz), area under the curve from the time of dosing to the last measurable concentration (AUC0-t), area under the curve from the time of dosing extrapolated to infinity (AUC0-inf), and bioavailability were calculated using noncompartmental analysis modules in the FDA-certified pharmacokinetic program WinNonlin Professional v5.2 (Pharsight).
Briefly, the mice were administered 1 mg/kg or 5 mg/kg intravenously, or 5 mg/kg intraperitoneally. Blood samples were collected at 15 min, 1, 2, 3, 6, 8, 12, and 24 hours post administration.

[9] = tested on: B16F10 cells; test: B16F10 syngeneic model in C57BL/6 mice; assay type: in vivo; conditions: 12 days
Procedure: C57BL/6 mice were inoculated with B16F10 cells. Female C57BL/6 mice aged 4-5 weeks were inoculated with B16F10 cells (2×10^5 cells in 0.05 ml per mouse) in the right flank. When the average tumor size of the mice reached 100 mm^3, the mice were divided into two groups (N=6). […] The treatment was intraperitoneally administered daily for 14 consecutive days.
The treatment was intraperitoneally administered daily for 12 consecutive days. At the end of the treatment, the mice were sacrificed and tumor and blood samples were collected in anticoagulation tubes. Single cell separation was performed for each sample and then stained for FACS analysis. For cell surface staining, CD45-PerCP-Cy5, CD4-FITC, CD8-PE-Cy7, and CD25-PE were used. The tumor samples were then stained with either an anti-CD4 antibody or an anti-CD8 antibody to assess the presence of T cells in the tumor samples. The tumor samples were also stained with an anti-CD194 antibody and anti-CD196 antibody to assess the presence of T helper 17 cells in the tumor samples.
The process of constructing WX-039 is described in Example 10. C57BL/6 mice were inoculated with B16F10 cells. […] The treatment was intraperitoneally administered daily for 12 consecutive days. At the end of the treatment, the mice were sacrificed and tumor and blood samples were collected in anticoagulation tubes. Tumor cells collected from the experiment were stained as described above and also with anti-CD205 antibody to assess whether WX compounds are capable of modulating dendritic cells.
The ability of WX-039 to suppress tumor growth was assessed in the animal model described in Example 5.4. Briefly, C57BL/6 mice were inoculated with B16 cells. Female C57BL/6 mice aged 5 weeks were inoculated with B16F10 cells (2×10^5 cells in 0.05 ml per mouse) in the right flank. When the average tumor size of the mice reached 100 mm^3, the mice were divided into two groups (N=3). The first group was administered 60 mg/kg WX-039 while the second group was treated with a vehicle. The treatment was intraperitoneally administered daily for 12 consecutive days.

[10] = Pharmacokinetics in female balb/c nude mice; assay type: in vivo; conditions: mouse, plasma, sc, 10 mg/kg subcutaneously
Procedure: The pharmacokinetic profiles of the four additional polypeptides constructed in Example 10 were assessed following the procedures described in Example 5.1. WX-029 and WX-036 were administered 1 mg/kg intravenously to female balb/c nude mice. Blood samples were collected at 15 min, 1, 2, and 4 hours post administration. FIG. 39A and FIG. 39B summarize the plasma concentration and the pharmacokinetic profiles calculated for WX-029. FIG. 40A and FIG. 40B summarize the plasma concentration and the pharmacokinetic profiles calculated for WX-036.
Similarly, WX-039 and WX-040 were also tested in female balb/c nude mice and assessed for their pharmacokinetic profiles. WX-039 was administered at 5 mg/kg intravenously, 5 mg/kg intraperitoneally, or 10 mg/kg subcutaneously. WX-040 was administered at 30 mg/kg intravenously or 30 mg/kg intraperitoneally. Blood samples were collected at 15 min, 1, 2, 4, 8, 24, 36, 48, and 72 hours post administration. FIG. 41A and FIG. 41B summarize the plasma concentration and the pharmacokinetic profiles calculated for WX-039. FIG. 42A and FIG. 42B summarize the plasma concentration and the pharmacokinetic profiles calculated for WX-040.

[11] = 20 mg/kg WX-024 or 60 mg/kg WX-039 i.p. daily

CC[C@H](C)[C@@H]1NC(=O)[C@@](C)(NC(=O)[C@H](CCCNC(=N)N)NC(=O)[C@H](CC(C)C)NC(=O)[C@]2(C)CCCC=CCCC[C@@](C)(NC(C)=O)C(=O)N[C@@H](CC(C)C)C(=O)N[C@@H](CCC(N)=O)C(=O)N2)CCCC=CCCC[C@@](C)(C(=O)N[C@@H](CC(C)C)C(=O)N[C@@H](Cc2ccc3ccccc3c2)C(=O)NCCC(=O)NCCC(N)=O)NC(=O)[C@H](CCCNC(=N)N)NC(=O)[C@H](CCC(N)=O)NC1=O [WX-035, Xaa1LQXaa2LRXaa3IQRXaa4L] (Ac-[R5]LQ[S5]LR[S5]IQR[S5]L[2Nal][βAla][βAla]-NH2; staple 1-4, 7-11)
effect on cell viability / cell growth [1]: improved IC50 value as compared to WX-024 | half-life [2]: > 9 h | Foxp3+ CD25+ T cells in tumor ([3]; WX-035, 7 days): reduced | LGR5 expression in intestine samples ([3]; WX-035, 7 days): reduced | total amount of CD4+ or CD8+ T cells in tumor ([3]; WX-035, 7 days): reduced | total amount of CD45+ cells in tumor ([3]; WX-035, 7 days): reduced | ratio between cytotoxic T cells (CD8+) and Foxp3+ regulatory T cells ([3]; WX-035, 7 days, vs vehicle): increased | average tumor growth inhibition ([3]; WX-035 i.p. for 7 consecutive days, day 7 / end of study): 88.44% | H&E staining of major organs [4]: did not cause any significant abnormality to major organs | IC50 [5]: 1860 nM | F | % [6]: 72% | AUCINF | [7]: 996.181 µg·h/mL and 997.708 µg·h/mL | AUClast | [7]: 987.148 µg·h/mL and 996.029 µg·h/mL | CL | [7]: 0.502 mL/min/kg | CMAX | [7]: 102393 ng/mL | MRTINF | hr [7]: 5.50 h | TERMINAL t1/2 | hr [7]: 9.81 h and 7.03 h | TMAX | hr [7]: 2.00 h | Vss | [7]: 0.166 L/kg | half-life [8]: > 4 h

CC[C@H](C)[C@@H]1NC(=O)[C@@](C)(NC(=O)[C@H](CCCNC(=N)N)NC(=O)[C@H](CC(C)C)NC(=O)[C@]2(C)CCCC=CCCC[C@@](C)(NC(=O)[C@H](CCCNC(=N)N)NC(C)=O)C(=O)N[C@@H](CC(C)C)C(=O)N[C@@H](CCC(N)=O)C(=O)N2)CCCC=CCCC[C@@](C)(C(=O)N[C@@H](CC(C)C)C(=O)N[C@@H](Cc2ccc3ccccc3c2)C(=O)NCCC(=O)NCCC(N)=O)NC(=O)[C@H](CCCNC(=N)N)NC(=O)[C@H](CCC(N)=O)NC1=O [WX-039, RXaa1LQXaa2LRXaa3IQRXaa4L] (Ac-R[R5]LQ[S5]LR[S5]IQR[S5]L[2Nal][βAla][βAla]-NH2; staple 2-5, 8-12)
T helper 17 cells in tumor [9, 11]: increased | dendritic cells (CD205+) in tumor [9, 11]: capable of suppressing dendritic cells present in tumor | body weight change ([9]; 60 mg/kg i.p. daily): no substantial body weight change | tumor growth compared to vehicle ([9]; 60 mg/kg i.p. daily): reduced tumor growth | half-life [10]: ~52 h

Reference: US12264185B2, “Stabilized BCL9 peptides for treatment of aberrant Wnt signaling” (WntRx Pharmaceuticals Inc., priority 2015, dated 2025)
